From patent US20100015126A1, “Methods of Binding of Cross-Beta Structures By Chaperones” (priority 2006, published 2010)

Columns and labels:
HUVECs = experiment: FACS: binding of misfolded proteins and BiP to HUVECs; format: cell-based, human
Procedure: For these experiments HUVECs were isolated by trypsinization. After trypsinization cells were collected in RPMI 1640, containing P/S and 10% FCS and centrifuged. After centrifugation cells were resuspended in RPMI medium without FCS at a concentration of 1.250.000 cells/250 μl. Individual 4-ml tubes (polypropylene, Greiner), containing 250 μl cell suspensions were made. To each tube 75 μl of a sample, containing either, • a. buffer (PBS) only, or • b. 25 μl PBS+50 μl BiP (1.16 mg/ml), or • c. 50 μl buffer with 25 μl oxLDL (1 mg/ml), or • d. 74 μl buffer with 1 μl BSA-AGE (25 mg/ml), or • e. 24 μl PBS+1 μl BSA-AGE (25 mg/ml)+50 μl BiP (1.16 mg/ml), or • f. 25 μl oxLDL (1 mg/ml)+50 μl BiP (1.16 mg/ml), • g. 1.6 μl dIgIV-65 (20 mg/ml)+73.4 μl PBS • h. […]
was added. Subsequently, the cells were incubated with the sample for approximately 30 minutes at 4° C. Next, cells were pelleted by centrifugation and the supernatant was discarded. Cells were washed subsequently with FACS buffer (PBS/0.5% BSA/0.05% m/v NaN3) at 4° C. and resuspended in FACS-buffer at approximately 1*10^5 cells/100 μl for subsequent analysis. Cell death was determined by adding 3 μl 7-aminoactinomycin D (7AAD) solution (prepared according to standard procedures). Binding of sample BSA-AGE (see elsewhere in this application for preparation details) was determined with anti-AGE monoclonal antibody 4B5 (10 μg/ml) and, after washing, with goat anti-mouse PE secondary antibodies (Jackson Immunoresearch, West Grove, USA). Binding of BSA-AGE was also assessed using the intrinsic fluorescence of BSA-AGE in the PE channel. Binding of oxidized LDL (oxLDL, oxidized for 56% following incubation with FeSO4; specific enhancement of Thioflavin T fluorescence) was determined with rabbit serum with anti-ApoB100 polyclonal antibodies at a concentration of 160 μg/ml and, after washing the cells, with FITC-labelled goat anti-rabbit antibodies (1:200, Jackson). Binding of dIgIV-65 was assessed by using anti-Human IgG antibody. BiP binding was determined using the earlier mentioned anti-FLAG antibody (M2, Sigma-Aldrich).

[1] = tested on: human monocyte-derived dendritic cells; experiment: FACS: binding of misfolded proteins and BiP to human monocyte-derived dendritic cells; format: cell-based
From the text: In vitro generation of peripheral blood human monocyte-derived dendritic cells, and analyses for binding of misfolded proteins and BiP
Human DCs are generated from non-proliferating precursors selected from peripheral blood mononuclear cells (PBMCs), essentially by published methods (Sallustro and Lanzavecchia [1994], J. Exp. Med. 179 1109-1118). Relative abundant presence of CD1a, CD32, CD36, CD40, CD54, CD86, HLA-DR and CD206 and relative low content of CD14 positive, CD16 positive, CD64 positive, CD80 positive, CD83 positive and CD163 positive cells serve as a quality measure for the immature DCs. After obtaining the immature DCs upon stimulation with GM-CSF and IL-4, direct binding of misfolded proteins and BiP to the DCs is assessed by incubating 200.000 cells (2*10^6 cells/ml) for 30 minutes at 4° C. under metabolic arrested state, with 1) PBS, 2) 58 μg/ml BiP (830 nM), 4) 250 μg/ml BSA-AGE (3.6 μM), 5) BSA-AGE+BiP, 6) 250 μg/ml oxLDL, 7) oxLDL+BiP, 8) mixture of BiP-binding peptides 6BB8-11, 13 (see Table 5), 125 μg/ml+BiP, and 8) 62.5 μg/ml Aβ16-22, 62.5 μg/ml Aβ25-35+BiP. After the incubation and careful washing of the cells, binding of BiP, BSA-AGE and oxLDL is assessed with FACS, using primary antibodies monoclonal anti-FLAG antibody, monoclonal anti-glycated human fibronectin antibody 4B5 and rabbit serum with anti-human apoliprotein B-100 antibody (Dade Behring, Newark, Del., USA), and the appropriate FITC- or PE-labeled secondary antibody. Mean fluorescence intensity (MFI) ratio's are determined by measuring background fluorescence.

immobilized BiP = biological target: T1, immobilized BiP (Homo sapiens, UniProt P11021); experiment: Depletion of solutions from misfolded proteins using immobilized BiP (ELISA); format: binding; conditions: BiP coated at 5 μg/ml
T1 construct: The human BiP gene except the signal peptide encoding region was obtained from Geneart (Germany); linker […]; made in house; host or cells: HEK 293E cells, transient transfection, PABC674 vector; secreted into the medium
Procedure: We analysed whether recombinant human BiP with a C-terminal FLAG-tag and His-tag can be applied for depleting solutions from misfolded proteins comprising crossbeta structure.
BiP was coated at a concentration of 5 μg/ml at Greiner Microlon high-binding plates, for 1 h at room temperature with motion. As a negative control buffer was coated. ELISAs were performed essentially as described before. […] All binding buffers were PBS/0.1% (v/v) Tween20. Binding of dOVA was assayed using monoclonal anti-chicken egg albumin antibody (Sigma, A6075, 1:10.000 dilution) and RAMPO (Dako Cytomation, P0260, 1:3.000). […] Background signals obtained with buffer coated wells that were subsequently overlayed with protein solutions (see below), were subtracted from signals obtained with wells with coated BiP.

T1 sequence (P11021 19-654): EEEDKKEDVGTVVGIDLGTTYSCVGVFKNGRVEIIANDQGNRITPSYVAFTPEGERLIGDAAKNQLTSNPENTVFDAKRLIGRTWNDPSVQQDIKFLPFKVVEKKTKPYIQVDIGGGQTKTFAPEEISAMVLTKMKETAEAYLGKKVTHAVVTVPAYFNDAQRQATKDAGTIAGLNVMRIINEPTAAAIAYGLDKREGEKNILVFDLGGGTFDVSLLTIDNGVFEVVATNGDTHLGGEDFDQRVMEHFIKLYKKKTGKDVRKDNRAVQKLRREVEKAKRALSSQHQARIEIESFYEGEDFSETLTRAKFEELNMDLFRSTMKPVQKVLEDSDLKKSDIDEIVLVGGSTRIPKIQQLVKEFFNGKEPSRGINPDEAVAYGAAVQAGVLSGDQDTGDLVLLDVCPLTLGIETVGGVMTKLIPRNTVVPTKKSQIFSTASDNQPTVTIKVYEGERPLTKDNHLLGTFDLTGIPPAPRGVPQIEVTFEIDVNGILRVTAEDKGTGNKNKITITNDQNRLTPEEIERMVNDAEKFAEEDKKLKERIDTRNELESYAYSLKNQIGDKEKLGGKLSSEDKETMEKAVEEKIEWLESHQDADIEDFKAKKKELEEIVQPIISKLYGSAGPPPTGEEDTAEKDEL

Row | Substance | Binding of misfolded protein to ECs (MFI ratio) (HUVECs; absence of BiP, 30 minutes at 4° C.) | Binding of misfolded protein to ECs (MFI ratio) (HUVECs; presence of BiP) | Binding to DCs (MFI ratio), Misfolded protein ([1]; FACS, human dendritic cells, detection of the misfolded protein, signal divided by background signal) | Binding of misfolded protein to DCs ([1]; absence of BiP, 250 μg/ml) | Amount of BiP bound to DCs when added together with misfolded protein ([1]; compared to BiP added to DCs alone) | Amount of misfolded protein bound to DCs when added together with BiP ([1]; compared to misfolded protein without BiP) | Concentration at which binding to immobilized BiP is already maximum (immobilized BiP) [µg/mL] | Extraction from solution by immobilized BiP (immobilized BiP; 1, 10, 100 μg/ml misfolded protein)
1 | BSA-AGE | 13.8 | 10.2 | 4.0 | bind | about doubled | only slightly increased | – | –
2 | HbAGE: human haemoglobin glycated with glucose-6-phosphate for 75 weeks | – | – | – | – | – | – | 1 | extracted specifically by BiP to an even higher extent
